From patent US9668960B2, “Methods useful in studying or modulating skin or hair pigmentation, plant extracts for use in compositions and cosmetic care method” (L V M H RECHERCHE, priority 2008, dated 2017)

Columns and labels:
[1] = system: Normal human epidermal melanocytes (F52; p5); assay: Melanin assay (melanogenesis) in normal pigmented human melanocytes; format: cell-based; settings: 72 h
Experimental: Cells were then washed 3-times with sterile PBS and supplemented with 350 μl of either fresh serum-free RPMI medium (melanoma cells) or starved serum-free and BPE-free melanocyte medium (EM) and incubated at 37° C. and 5% CO2 for 24 h. Cells were then washed with sterile PBS 3-times and incubated with IBMX 1×10^-4 M at 37° C. and 5% CO2 for 12, 24, and 72 h. Cells were then gently washed 3-times with sterile PBS and fixed in ice-cold methanol for 10 minutes at -20° C. Slides were stored at -20° C. until immunocytochemistry was performed. […] The melanin standards were pipetted into a 96 well plate to produce a calibration curve for the assessment of melanin content in the test samples. 400 μl of 1 M NaOH was added to each cell pellet and dissolved on a heat block (100° C.) for 15 minutes. The pellets were vortexed vigorously and the solubilized pellet was pipetted into the same 96-well plate. The optical densities of the sample were read at […] on a DYNEX REVELATION 4.02 program. Melanin content of each test sample was read from the calibration curve. […] In addition IBMX and NH4Cl (positive melanocytic modulators) and niacinamide (negative modulator) were used as controls. Visible change was not particularly evident in normal melanocyte due to their already high basal melanin levels (FIG. 1). By contrast, visible change was evident in melanoma cells basal melanin levels were low (FIG. 2). […] Normal human epidermal melanocytes (Female-52; p5) were treated for 72 h with L-18 (0.001%), L-19 (1%), L-20 (0.5%), L-21 (10 μg/ml), L-22 (1%) and L-23 (0.05 μg/ml). Controls: Melanocytic modulators: IBMX (100 μM), NH4Cl (100 μM), and niacinamide (10 μM). (A) Melanin content was determined spectro-photometrically (475 nm) after sodium hydroxide solubilise (B) Visible change was not particularly evident in these cells due to their already high basal melanin levels. Results were expressed as change in melanin content (pg/cell) compared to unstimulated control levels. Means are ±SEM of 3 independent experiments with *P<0.05, **P<0.01, ***P<0.001. NS-Not Significant

FM55 melanoma cells = assay: Melanin assay (melanogenesis) in moderately-pigmented FM55 melanoma; format: cell-based, human; settings: 72 h
Experimental: Cells were then washed 3-times with sterile PBS and supplemented with 350 μl of either fresh serum-free RPMI medium (melanoma cells) or starved serum-free and BPE-free melanocyte medium (EM) and incubated at 37° C. and 5% CO2 for 24 h. Cells were then washed with sterile PBS 3-times and incubated with IBMX 1×10^-4 M at 37° C. and 5% CO2 for 12, 24, and 72 h. Cells were then gently washed 3-times with sterile PBS and fixed in ice-cold methanol for 10 minutes at -20° C. Slides were stored at -20° C. until immunocytochemistry was performed. […] The melanin standards were pipetted into a 96 well plate to produce a calibration curve for the assessment of melanin content in the test samples. 400 μl of 1 M NaOH was added to each cell pellet and dissolved on a heat block (100° C.) for 15 minutes. The pellets were vortexed vigorously and the solubilized pellet was pipetted into the same 96-well plate. The optical densities of the sample were read at […] on a DYNEX REVELATION 4.02 program. Melanin content of each test sample was read from the calibration curve. […] In addition IBMX and NH4Cl (positive melanocytic modulators) and niacinamide (negative modulator) were used as controls. […] Controls: Melanocytic modulators: IBMX (100 μM), NH4Cl (100 μM), and niacinamide (10 μM). (A) Melanin content was determined spectrophotometrically (475 nm) after sodium hydroxide solubilisation. […] (B). Results were expressed as the change in melanin content (pg/cell) compared to unstimulated control levels. Means are ±SEM of 3 independent experiments with *P<0.05, **P<0.01, ***P<0.001.

tyrosinase [2] = assay: DOPA oxidase detection for tyrosinase activity in pigmented normal human melanocytes; format: cell-based; settings: 72 h
Experimental: The cells were prepared for SDS-PAGE and transblotted onto PVDF membranes. 70 μg of un-reduced protein extract without boiling was pipetted into the appropriate wells of 8% SDS-PAGE gels. […] The L-DOPA reaction was stopped by washing the membrane in distilled water and the membrane was scanned. […] In addition IBMX and NH4Cl (positive melanocytic modulators) and niacinamide (negative modulator) were used as controls. […] Normal human epidermal melanocytes (Female-52; p5) were treated for 72 h with L-18 (0.001%), L-19 (1%), L-20 (0.5%), L-21 (10 μg/ml), LVMH-22 (1%) and L-23 (0.05 μg/ml). Controls: Melanocytic modulators: IBMX (100 μM), NH4Cl (100 μM), and niacinamide (10 μM). (A) Protein extracts were electroblotted and membranes stained with L-DOPA for the estimation of tyrosinase activity.

tyrosinase [3] = assay: DOPA oxidase detection for tyrosinase activity in FM55 melanoma; format: cell-based, human; settings: 72 h
Experimental: The cells were prepared for SDS-PAGE and transblotted onto PVDF membranes. 70 μg of un-reduced protein extract without boiling was pipetted into the appropriate wells of 8% SDS-PAGE gels. […] The L-DOPA reaction was stopped by washing the membrane in distilled water and the membrane was scanned. […] In addition IBMX and NH4Cl (positive melanocytic modulators) and niacinamide (negative modulator) were used as controls. […] Controls: Melanocytic modulators: IBMX (100 μM), NH4Cl (100 μM), and niacinamide (10 μM.). (A) Protein extracts were electroblotted and membranes stained with L-DOPA for the estimation of tyrosinase activity. (B) Densitometric scanning of band intensities and values were expressed as the fold increase compared to unstimulated control levels. Means are ±SEM of 3 independent experiments with *P<0.05, **P<0.01, ***P<0.001.

human Myo-X = assay: Knockdown of Myo-X using siRNA in epidermal melanocytes (western blot, immunofluorescence); format: cell-based
Experimental: (§1) Knockdown of Myo-X using siRNA: A synthetic siRNA targeting human Myo-X (5′-[…]-3′) (SEQ ID No 1) and a non-silencing control, consisting of siRNA that has no known homology with mammalian genes (5′-[…]-3′) (SEQ ID No 2) was obtained from Qiagen, Valencia, Calif. A day before siRNA treatment, 5×10^5 epidermal melanocytes per well were plated onto six-well plates at 50-60% confluency and incubated at 37° C. for 12 h. Cells were then treated for 12 h with a final concentration of 25 nM siRNA by using HiPerFect Transfection Reagent (Qiagen, Valencia, Calif.) following the manufacturer's instructions. Fluorescence microscopy was used to verify that approximately 100% of the cells (using non-silencing control labelled with alexa fluor 488 labels) had taken up the siRNA. At 12 h, the cells from each well were replated into 8-well Lab-Tek® chamber slides. For co-culture studies siRNA treated melanocytes were seeded with normal keratinocytes (passage 2) in 8-well Lab-Tek® chamber slides at a cell density of 2×10^4 cells/well and in a ratio of 1 siRNA treated melanocyte to 10 normal keratinocytes. At 24 h the co-culture were processed for double Immunofluorescence staining with gp100 and cytokeratin or Myo-X to study of the influence of gene knockdown on melanosome transfer, and parallel samples were assayed by immunofluorescence staining and western blot analysis to verify gene knockdown. […]

[4] = system: melanosome transfer from melanocytes to keratinocytes; assay: Melanosome transfer after knockdown of Myo-X expression in epidermal melanocytes-keratinocytes co-culture; format: cell-based, human; settings: Myo-X-silenced melanocytes cultured with normal keratinocytes 24 h; vs non-silencing control siRNA
Experimental: as §1, with “keratinocytes.” for “keratinocytes. At 24 h the co-culture were processed for double Immunofluorescence staining with gp100 and cytokeratin or Myo-X to study of the influence of gene knockdown on melanosome transfer, and parallel samples were assayed by immunofluorescence staining and western blot analysis to verify gene knockdown.”
Using this assay the rate of melanosome transfer from melanocytes to keratinocytes with non-silencing control siRNA conditions was determined (FIG. 8). […]

[5] = L-18 0.001%, L-19 1%, L-20 0.5%, L-21 10 μg/ml, L-22 1%, L-23 0.05 μg/ml, IBMX 100 μM, NH4Cl 100 μM, niacinamide 10 μM, vs basal

Row | Changes in tyrosinase activity, F52 EMc % change (tyrosinase [2]; [5]) | Changes in tyrosinase activity, FM55 % change (tyrosinase [3]; same doses as E5, vs basal) | Compound | Changes in melanin levels, F52 EM % change [1, 5] | Melanin content, F52 EM (pg/cell) ([1]; same doses as E1, basal 35.63) | Changes in melanin levels, FM55 % change (FM55 melanoma cells; [5]) | Melanin content, FM55 (pg/cell) (FM55 melanoma cells; same doses as E3, basal 9.92) | effect on melanin content compared with basal levels (FM55 melanoma cells; FM55 melanoma cells, doses as E3) | effect on tyrosinase (dopa oxidase) activity compared with basal levels (tyrosinase [2]; normal melanocytes (EM), doses as E5) | effect on tyrosinase (dopa oxidase) activity compared with basal levels (tyrosinase [3]; FM55 melanoma cells, doses as E5) | expression of Myo-X compared to non-silencing control siRNA (human Myo-X; 25 nM siRNA, 12 h, immunofluorescence) | filopodia in Myo-X-silenced melanocytes (human Myo-X; anti-gp100 double-immunolabelling) | melanosome transfer reduced by [4]
1 | +159.63% | +408.27% | Cl.N [NH4Cl] | +166.17% | (94.83) pg/cell | +478.82% | (56.83) pg/cell | visible increases in melanogenesis | dramatic increase in dopa oxidase activity of tyrosinase | dramatic increase in dopa oxidase activity of tyrosinase |  |  | 
2 |  |  | siRNA targeting human Myo-X: synthetic siRNA targeting human Myo-X (5′-CAGCGGTATAAGAGAAATCAA-3′), obtained from Qiagen (listed as DNA, chemistry not given here; listed as Homo sapiens) |  |  |  |  |  |  |  | almost completely inhibited | absence of filopodia | 80%
